Measured values: paper PMC6275946 (ACS Omega, 2018)

What was measured:
[1] = biological target: SHP2 (Src-homology-2-domain-containing PTP 2) (Homo sapiens, UniProt Q06124); assay: LC-MS/MS of covalent cysteine labeling; format: biochemical
[2] = biological target: T1, SHP1 (Src-homology-2-domain containing protein tyrosine phosphatase 1) (Homo sapiens, UniProt P29350); assay: pNPP phosphatase assay, […] compound, […] h preincubation at […] °C; format: biochemical
T1 sequence (P29350 244-515 limits assumed): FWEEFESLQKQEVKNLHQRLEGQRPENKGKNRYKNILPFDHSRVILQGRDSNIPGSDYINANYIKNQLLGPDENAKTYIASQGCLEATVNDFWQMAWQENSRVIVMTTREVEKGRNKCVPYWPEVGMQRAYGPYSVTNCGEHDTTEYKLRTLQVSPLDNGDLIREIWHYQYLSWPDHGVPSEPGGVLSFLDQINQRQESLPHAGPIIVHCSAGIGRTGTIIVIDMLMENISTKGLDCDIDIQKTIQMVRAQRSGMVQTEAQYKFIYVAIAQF

Sequence of SHP2 (Src-homology-2-domain-containing PTP 2) (Q06124 1-541): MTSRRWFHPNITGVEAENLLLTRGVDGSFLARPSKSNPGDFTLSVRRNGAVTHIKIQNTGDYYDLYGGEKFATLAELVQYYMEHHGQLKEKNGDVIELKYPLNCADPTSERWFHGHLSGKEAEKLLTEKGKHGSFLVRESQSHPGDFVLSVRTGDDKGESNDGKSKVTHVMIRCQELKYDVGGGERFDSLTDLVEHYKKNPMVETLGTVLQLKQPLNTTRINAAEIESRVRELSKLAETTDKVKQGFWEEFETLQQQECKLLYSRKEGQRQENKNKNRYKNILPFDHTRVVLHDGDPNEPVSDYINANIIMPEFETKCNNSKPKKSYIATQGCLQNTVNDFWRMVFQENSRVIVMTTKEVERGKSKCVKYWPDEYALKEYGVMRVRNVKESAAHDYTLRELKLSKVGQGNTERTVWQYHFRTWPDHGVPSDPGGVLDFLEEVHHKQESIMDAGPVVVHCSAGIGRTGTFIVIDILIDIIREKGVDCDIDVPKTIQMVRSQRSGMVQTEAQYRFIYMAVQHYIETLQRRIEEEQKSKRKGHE

IC50 [1]: ~35 µM
SMILES: C=CC(=O)Nc1ccnc2ccccc12 [compound 12, N-(Quinolin-4-yl)prop-2-enamide]
pNPP phosphatase assay, 50 μM compound, 4 h preincubation at 37 °C [2]: the only two human PTPs that have cysteine at this position, SHP2 and SHP1, are sensitive to inhibition
